The nature of this series: Human HepG2 cell viability assay in 384 well format. Type of series: toxicity, cell-based. More on the design: dose 125 nL, time 70.5 hour; concentration not given beside the values. The settings on record: HepG2 cells, read-out: Inhibition.
Regarding `CCOc1ccc(CN2CCNC(C(=O)NC3CC3)C2)cc1CO` (configuration not stated), the cytotoxicity at 70.5 h was -10.9%.
Consider `Cc1cc(F)ccc1CN1CCCC(O)(CN2CCCC2)C1` (configuration not stated), for which the cytotoxicity at 70.5 h is -1.52%.
In the case of `O=C(Cc1cn2ccsc2n1)N(Cc1ccco1)CC1CCCO1` (configuration not stated), the cytotoxicity at 70.5 h came to 7.91%.
Regarding `COC(=O)CNC(=O)CCc1cc(Br)cs1`, the cytotoxicity at 70.5 h is -3.56%.
In the case of `O=C(O)CCc1cc2n(n1)CCCN(C(=O)c1ccc(F)cc1F)C2`, the cytotoxicity at 70.5 h was -0.277%.
As to `Cc1nc(CC(=O)N2CCC(c3ccn4nccc4n3)CC2)cs1`, the cytotoxicity at 70.5 h turned out to be 1.76%.
With `Cc1ccc2[nH]c(C(=O)N3CCCC3Cn3cccn3)cc2c1` (configuration not stated), the cytotoxicity at 70.5 h was determined as 4.08%.
As to `CC(=O)N(C)c1nc(CN2CCCCC2Cn2cncn2)cs1` (configuration not stated), the cytotoxicity at 70.5 h is -6.38%.
On to `CNC(=O)[C@@]12CCC3(CCN(S(=O)(=O)C4CC4)CC3)[C@@H]1CN(C(C)=O)C2`, for which the cytotoxicity at 70.5 h came to 20.2%.
Turning to `COCCOC[C@]1(CNC(=O)c2ccc(OC)cc2)C[C@@H](O)[C@@H](O)C1`, the cytotoxicity at 70.5 h was -4.22%.
Turning to `COC(=O)Cc1cn2cc(C(F)(F)F)ccc2n1`, the cytotoxicity at 70.5 h worked out at 13.2%.
On to `Cc1cc(C)n(CC(=O)N(C)Cc2csc(-c3cccs3)n2)c(=O)n1`, for which the cytotoxicity at 70.5 h was found to be 6.7%.
Take `CCn1nc(Br)nc1Sc1ccccc1NC(C)=O`: the cytotoxicity at 70.5 h was -0.88%.
Consider `COc1ccc(N2CCCC3(C2)CN(c2nncs2)CCO3)cc1` (configuration not stated), for which the cytotoxicity at 70.5 h amounted to 1.09%.
As for `c1ccc(-c2nnc3n2CCN(Cc2ccc4c(c2)OCCO4)C3)cc1`, the figure is 26.9%.
On to `Cn1ccnc1-c1ccc(NC[C@H]2CCc3ccccc3O2)nn1`, for which the cytotoxicity at 70.5 h came out at 18%.
As for `CN(C(=O)CN1CCOC(Cn2cccn2)C1)c1nccs1` (configuration not stated), the figure is 9.89%.
For the compound `CCN(CCc1nc2cc(C)ccc2[nH]1)C(=O)[C@@H](N)COC`, the cytotoxicity at 70.5 h came out at 10%.
For `Cc1nn(C)cc1-c1cc(C(F)F)n2nc(CCC(=O)O)nc2n1`, the cytotoxicity at 70.5 h is -0.99%.
With `Cc1noc(C)c1CN(C)C(C)c1cccs1` (configuration not stated) the figure was -3.21%; with `CC(O)CN1CCC(CNCc2cccc(OC(F)(F)F)c2)CC1` (configuration not stated), 5.77%; with `O=C(NCCN1CCOCC1)Nc1cnc2cc(Cl)ccc2c1O`, 12.7%.
In the case of `CC(=O)N[C@@H]1CN(Cc2cccs2)C[C@H]1c1ccc(C)o1`, the cytotoxicity at 70.5 h was found to be 1.3%.
For `Cc1noc(CNc2cc3c(cc2Cl)NC(=O)CO3)n1`, the cytotoxicity at 70.5 h was -10.2%.
As to `COCCCC1CCCCN1Cc1cnn(C)c1C1CC1` (configuration not stated), the cytotoxicity at 70.5 h is -2.6%.
Turning to `CCOCc1cnc2n1CCN(C(=O)C1=CCCC1)C2C` (configuration not stated), the cytotoxicity at 70.5 h is -2.23%.
In the case of `CC(C)CNC(=O)c1ccc(NC(=O)NC(C)C)cc1Cl`, the cytotoxicity at 70.5 h was -11.5%.
Turning to `O=C1CCC(=O)N1CCN1CCOC(c2ccsc2)C1` (configuration not stated), the cytotoxicity at 70.5 h was found to be 3.03%.
For the compound `COc1ccc(CS(=O)(=O)CC(=O)NCc2ccccc2F)cc1F`, the cytotoxicity at 70.5 h is -11.2%.
For `CN(C)S(=O)(=O)N1CCC(c2ccnc(Nc3ccccn3)n2)C1` (configuration not stated), the cytotoxicity at 70.5 h was -0.703%.
On to `Cc1ccc(CN2CCc3nnc(CN4CCCC4=O)n3CC2)s1`, for which the cytotoxicity at 70.5 h is -7.74%.
Consider `c1cnnc(-c2noc(COCC3CCCO3)n2)c1` (configuration not stated), for which the cytotoxicity at 70.5 h is -3.34%.
For `O=C(C1CNCCN1C(=O)CCc1cccnc1)N1CCOCC1` (configuration not stated), the cytotoxicity at 70.5 h was 3.27%.
As for `CC(C)OCCC(=O)N1CCN(CC(O)c2ccccc2)CC1` (configuration not stated), the cytotoxicity at 70.5 h is -1.62%.
As to `COCCN1CCC(CNC(=O)C2(NC(C)=O)CCCCC2)CC1`, the cytotoxicity at 70.5 h was -8.37%.
Turning to `CCc1ccc(CN2CCOC(Cc3cccc(F)c3)C2)nc1` (configuration not stated), the cytotoxicity at 70.5 h is -5.34%.
As to `CC(C)c1ccc(NC(=O)c2ncc(C(N)=O)cc2Cl)cc1`, the cytotoxicity at 70.5 h was -86.1%.
As for `CCCOC(=O)N1CCn2nc(-c3nc4ccccc4n3C)cc2C1`, the figure is -5.25%.
With `CCN(CC)S(=O)(=O)CCNc1nnc(C(C)C)s1`, the cytotoxicity at 70.5 h was 6.99%.
Consider `Cc1cccc(CN2CC3(CCNCC3)OCC2=O)n1`, for which the cytotoxicity at 70.5 h was determined as 0.469%.
`O=C(CC1CCN(CCN2CCCCC2)CC1)N1CCOCC1`: the cytotoxicity at 70.5 h is -9.66%.
As for `Cc1cc(C)nc(N2CCC(C(=O)Nc3ccc(C(C)C)cc3)CC2)n1`, the cytotoxicity at 70.5 h was -2.09%.
Regarding `CC(=O)NCCc1ccc(S(=O)(=O)Nc2ccc(C)cc2F)s1`, the cytotoxicity at 70.5 h is -2.14%.
For the compound `c1ccc2sc(N3CCCC4(CCOC4)C3)nc2c1` (configuration not stated), the cytotoxicity at 70.5 h is -2.11%.
For the compound `O=C(CN1CCN(c2ccccc2F)CC1)Nc1ccc(Cl)cn1`, the cytotoxicity at 70.5 h came to 11.6%.
With `O=C1CCC2(CCN(Cc3cscn3)CC2)CN1[C@H]1CC[C@H](O)CC1`, the cytotoxicity at 70.5 h is -13.1%.
In the case of `Cn1ccc(NC(=O)CN2CCC(Oc3cnccn3)CC2)n1`, the cytotoxicity at 70.5 h was determined as 1.93%.
For the compound `CC(=O)N1CCC2(CC1)CC(N1CCOCC1)c1ccc(C)cc12` (configuration not stated), the cytotoxicity at 70.5 h was -8.04%.
As to `CCN1CCN(C(=O)c2cc(NC(=O)c3ccccc3)n(C)n2)CC1`, the cytotoxicity at 70.5 h is -3.8%.
With `CN(Cc1cc(Br)c2c(c1)OCO2)Cc1cscn1` the figure was -14.1%; with `Cc1noc2nc3c(c(C(=O)/N=c4\[nH]ncs4)c12)CCC3`, 25.6%; with `CCCOc1cc(C)ccc1NC(=O)N(C)Cc1cnn(C)c1`, -4.07%.
As for `O=C(CN1CC(n2cccn2)C1)NCCCN1CCCC1=O`, the figure is 22.2%.
As for `Cc1csc(NC(=O)CN(C)CC2CCCN2c2cccnn2)n1` (configuration not stated), the figure is 3.61%; as for `CCOCCNC(=O)c1cccc(S(=O)(=O)NC[C@@H]2C[C@H](F)CN2)c1`, 31.3%.
For the compound `Cc1ncncc1C(=O)N1CCCC(Cc2nccs2)C1` (configuration not stated), the cytotoxicity at 70.5 h was -4.31%.
For the compound `N#Cc1cccc(OCCN2CCCC2C(=O)N2CCSCC2)c1` (configuration not stated), the cytotoxicity at 70.5 h worked out at 3.62%.
As for `COC(=O)c1cccn1C1CCN(C(=O)c2c(C)noc2C)CC1`, the cytotoxicity at 70.5 h was 3.97%.
Turning to `COCc1ncn2c1CN(S(=O)(=O)c1cccc(F)c1)CC2`, the cytotoxicity at 70.5 h is -8.14%.
In the case of `COc1ccc(S(=O)(=O)Nc2cccnc2-n2cncn2)c(C)c1`, the cytotoxicity at 70.5 h is -8.45%.
For `CC(=O)NCCNC(=O)c1cc(Br)c2c(c1)OCCO2`, the cytotoxicity at 70.5 h is -11.6%.
As for `CC(Cn1cccn1)NC(=O)N1CCN(Cc2ccco2)CC1` (configuration not stated), the figure is 0.805%; as for `CCn1ncc(S(=O)(=O)N[C@@H]2CC[C@@H](n3ccnc3)[C@@H]2O)c1C`, -10.4%.
For the compound `CCC(C)N(Cc1ccsc1)C(=O)c1ccc2[nH]nnc2c1` (configuration not stated), the cytotoxicity at 70.5 h came out at 24.9%.
Turning to `CCS(=O)(=O)N1CCC2(CC1)CN(CC1CCOC1)c1ccccc12` (configuration not stated), the cytotoxicity at 70.5 h is 26%.
`Cc1ccc(N2CCN(C(=O)CCc3n[nH]c(C)n3)CC2=O)cc1`: the cytotoxicity at 70.5 h is -8.56%.
On to `COc1cc(C)sc1C(=O)N1CCC(Nc2cccnc2)CC1`, for which the cytotoxicity at 70.5 h was -5.15%.
As for `CC(=O)Nc1nc(CN2CCOC(Cn3nc(C)cc3C)C2)cs1` (configuration not stated), the figure is 10.6%; as for `O=C(NCCCn1cnnc1)C1CCCN(C2CCCC2)C1` (configuration not stated), 26.7%.
Regarding `COc1cccc2c3c(c(=O)[nH]c12)CCO3`, the cytotoxicity at 70.5 h came to 3.58%.
With `CN(C)CC(=O)N1CCc2ncnc(-c3cncnc3)c2CC1`, the cytotoxicity at 70.5 h is -3.5%.
For `CN1CCN(C)C(CNC(=O)N(C)Cc2ccc(Cl)c(F)c2)C1` (configuration not stated), the cytotoxicity at 70.5 h is -11.2%.

These data come from ChEMBL document CHEMBL3507680, “University of Dundee, Gates Library screen for HepG2 cell viability”.
